Converted amounts (≈) assume the structure as drawn.
Legend:
[1] = Distribution coefficient, log D of compound at pH 7.4; conditions: octanol/water
[2] = Solubility of compound in DMSO
[3] = Dissociation constant, pKa of the compound by UV absorbance method; type: physicochemical
[4] = Fraction unbound in human plasma
[5] = Intrinsic clearance in human liver microsomes
[6] = Apparent permeability of the compound across apical side to basolateral side in human Caco2 cells; conditions: Caco-2
[7] = Dissociation constant, pKa of the compound by potentiometric titretion method
hERG (KCNH2) = hERG (KCNH2) (Homo sapiens, UniProt Q12809); assay: in vitro
Sequence of hERG (KCNH2) (Q12809 whole entry): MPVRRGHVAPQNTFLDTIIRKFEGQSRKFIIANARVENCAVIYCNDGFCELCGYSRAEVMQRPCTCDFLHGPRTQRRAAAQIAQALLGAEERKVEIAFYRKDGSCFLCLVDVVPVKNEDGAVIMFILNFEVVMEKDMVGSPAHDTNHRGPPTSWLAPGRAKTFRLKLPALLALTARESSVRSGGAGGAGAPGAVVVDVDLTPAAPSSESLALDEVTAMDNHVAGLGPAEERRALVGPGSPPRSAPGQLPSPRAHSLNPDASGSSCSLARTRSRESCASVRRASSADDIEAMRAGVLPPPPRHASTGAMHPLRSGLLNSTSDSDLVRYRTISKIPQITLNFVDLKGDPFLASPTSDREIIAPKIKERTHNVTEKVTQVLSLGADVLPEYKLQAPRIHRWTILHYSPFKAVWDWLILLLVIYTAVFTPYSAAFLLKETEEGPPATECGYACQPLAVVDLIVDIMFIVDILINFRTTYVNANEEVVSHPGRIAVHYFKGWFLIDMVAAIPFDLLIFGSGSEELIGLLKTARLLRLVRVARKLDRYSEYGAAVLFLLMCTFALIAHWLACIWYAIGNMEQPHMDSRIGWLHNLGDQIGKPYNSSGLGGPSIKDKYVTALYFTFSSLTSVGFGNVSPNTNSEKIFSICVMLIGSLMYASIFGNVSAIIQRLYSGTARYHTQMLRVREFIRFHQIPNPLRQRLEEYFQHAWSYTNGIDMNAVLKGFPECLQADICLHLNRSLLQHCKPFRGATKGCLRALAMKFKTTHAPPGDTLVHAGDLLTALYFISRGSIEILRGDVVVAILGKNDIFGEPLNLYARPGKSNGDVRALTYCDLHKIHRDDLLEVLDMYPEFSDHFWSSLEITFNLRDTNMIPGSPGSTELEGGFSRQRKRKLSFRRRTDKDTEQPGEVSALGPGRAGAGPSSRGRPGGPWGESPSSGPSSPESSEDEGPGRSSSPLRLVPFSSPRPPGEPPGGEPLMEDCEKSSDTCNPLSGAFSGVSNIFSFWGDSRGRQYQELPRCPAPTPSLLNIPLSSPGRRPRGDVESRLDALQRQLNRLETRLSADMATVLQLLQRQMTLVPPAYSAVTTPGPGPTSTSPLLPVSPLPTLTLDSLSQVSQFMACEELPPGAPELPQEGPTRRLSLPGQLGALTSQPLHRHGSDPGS
Description: Inhibition of human ERG at 11 uM by single shot IonWork assay relative to control

Row | Structure (SMILES) | logD [1] | solubility [2] | pKa [3] | fraction unbound [4] | microsomal CLint ([5]; liver microsomes) | Papp A→B [6] | microsomal CLint ([5]; microsomes) | pKa [7] | inhibition at 11 µM (hERG (KCNH2))
1 | O=C1c2ccccc2S(=O)(=O)N1Cc1ccccc1 | -1.8 | < 0.01 µM | – | – | – | – | – | – | –
2 | NC1=NS(=O)(=O)c2ccccc21 | 0.2 | 798 µM (≈ 145 µg/mL) | 11.4 | 0.48 | < 3 µL/min/mg | 7.39 ×10⁻⁶ cm/s | – | – | –
3 | O=C1NS(=O)(=O)c2ccccc21 [SACCHARIN] | < -0.1 | 838 µM (≈ 154 µg/mL) | – | 0.37 | – | < 0.75 ×10⁻⁶ cm/s | < 3 µL/min/mg | 3.1 | –
4 | N=S1(=O)c2ccccc2C(=O)N1Cc1ccccc1 (stereo not drawn) | 1.8 | 946 µM (≈ 258 µg/mL) | 8.7 | – | 19.2 µL/min/mg | 84.7 ×10⁻⁶ cm/s | – | – | -7.4%
5 | CCN1C(=O)c2ccccc2S1(=N)=O (stereo not drawn) | 0.7 | 512 µM (≈ 108 µg/mL) | 8.9 | 0.83 | < 3 µL/min/mg | 92 ×10⁻⁶ cm/s | – | – | -4.7%
6 | CCN=S1(=O)NC(=O)c2ccccc21 (stereo not drawn) | 0.1 | 947 µM (≈ 199 µg/mL) | 6.9 | 0.41 | < 3 µL/min/mg | 26.8 ×10⁻⁶ cm/s | – | – | 1.3%
7 | CCN1C(=O)c2ccccc2S1(=O)=O | – | < 13 µM | – | – | – | 125 ×10⁻⁶ cm/s | – | – | 3.6%
8 | NS1(=O)=NC(=O)c2ccccc21 (stereo not drawn) | – | – | 5.7 | 0.4 | < 3 µL/min/mg | – | – | – | –
9 | CCNC1=NS(=O)(=O)c2ccccc21 | 0.7 | 971 µM (≈ 204 µg/mL) | 11.7 | 0.56 | < 3 µL/min/mg | 29.3 ×10⁻⁶ cm/s | – | – | 18.4%

Continued, in another order:

Row | logD [1] | solubility [2] | pKa [3] | fraction unbound [4] | microsomal CLint ([5]; liver microsomes) | Papp A→B [6] | microsomal CLint ([5]; microsomes) | pKa [7] | Structure (SMILES) | inhibition at 11 µM (hERG (KCNH2))
10 | 0.8 | 107 µM (≈ 30.6 µg/mL) | 6.55 | 0.089 | < 3 µL/min/mg | 47 ×10⁻⁶ cm/s | – | – | C[C@H](NS1(=O)=NC(=O)c2ccccc21)c1ccccc1 (single isomer, unassigned) | –
11 | 1.4 | 13 µM (≈ 3.72 µg/mL) | 6.62 | 0.014 | < 3 µL/min/mg | 63 ×10⁻⁶ cm/s | – | – | C[C@H](N[S@]1(=O)=NC(=O)c2ccccc21)c1ccccc1 | –
12 | 0.8 | 869 µM (≈ 237 µg/mL) | 6.5 | 0.12 | < 3 µL/min/mg | 70.7 ×10⁻⁶ cm/s | – | – | O=C1N=S(=O)(NCc2ccccc2)c2ccccc21 (stereo not drawn) | -1.9%
13 | 1.9 | 89 µM (≈ 24.2 µg/mL) | – | 0.2 | < 3 µL/min/mg | – | – | – | O=S1(=O)N=C(NCc2ccccc2)c2ccccc21 | 2.8%
14 | 1.3 | 578 µM (≈ 149 µg/mL) | 8.3 | – | 93.5 µL/min/mg | – | – | – | N=S1(=O)c2ccccc2C(=O)N1c1ccccc1 (stereo not drawn) | -25.6%
15 | -1.1 | 958 µM (≈ 247 µg/mL) | 4.1 | 0.088 | < 3 µL/min/mg | 6.57 ×10⁻⁶ cm/s | – | – | O=C1N=S(=O)(Nc2ccccc2)c2ccccc21 (stereo not drawn) | 5.2%
16 | 2 | 7 µM (≈ 1.81 µg/mL) | – | 0.16 | 85.4 µL/min/mg | – | – | – | O=S1(=O)N=C(Nc2ccccc2)c2ccccc21 | 11.1%
